Reference: the NIST ThermoML archive (doi:10.1016/j.jct.2016.01.021)

Assay: xn = mol fraction of the nth substance listed
Details: 100 kPa, Liquid; for viscosity: Capillary tube (Ostwald / Ubbelohde) method; for mass density: Vibrating tube method

CCCCCCCCCCCC(=O)OCC [ethyl dodecanoate] + CCCCCCCCCCCCCCCC
Details	mass density [kg/m3]	viscosity [mPa·s]
298.15 K, x2 = 0	858.19	3.015
298.15 K, x2 = 0.1	848.2	2.977
298.15 K, x2 = 0.2	838.49	2.954
298.15 K, x2 = 0.3	829.03	2.935
298.15 K, x2 = 0.4	819.83	2.925
298.15 K, x2 = 0.5	810.88	2.923
298.15 K, x2 = 0.6	802.18	2.933
298.15 K, x2 = 0.7	793.76	2.952
298.15 K, x2 = 0.7999	785.59	2.98
298.15 K, x2 = 0.9	777.65	3.024
303.15 K, x2 = 0	854.3	2.704
303.15 K, x2 = 0.1	844.34	2.673
303.15 K, x2 = 0.2	834.69	2.65
303.15 K, x2 = 0.3	825.27	2.632
303.15 K, x2 = 0.4	816.11	2.624
303.15 K, x2 = 0.5	807.21	2.623
303.15 K, x2 = 0.6	798.55	2.629
303.15 K, x2 = 0.7	790.18	2.645
303.15 K, x2 = 0.7999	782.04	2.668
303.15 K, x2 = 0.9	774.14	2.706
308.15 K, x2 = 0	850.4	2.439
308.15 K, x2 = 0.1	840.49	2.412
308.15 K, x2 = 0.2	830.88	2.392
308.15 K, x2 = 0.3	821.51	2.377
308.15 K, x2 = 0.4	812.4	2.368
308.15 K, x2 = 0.5	803.54	2.367
308.15 K, x2 = 0.6	794.93	2.372
308.15 K, x2 = 0.7	786.59	2.384
308.15 K, x2 = 0.7999	778.5	2.403
308.15 K, x2 = 0.9	770.64	2.433
313.15 K, x2 = 0	846.5	2.213
313.15 K, x2 = 0.1	836.63	2.188
313.15 K, x2 = 0.2	827.07	2.169
313.15 K, x2 = 0.3	817.75	2.155
313.15 K, x2 = 0.4	808.68	2.149
313.15 K, x2 = 0.5	799.87	2.146
313.15 K, x2 = 0.6	791.3	2.15
313.15 K, x2 = 0.7	783.01	2.16
313.15 K, x2 = 0.7999	774.96	2.179
313.15 K, x2 = 0.9	767.14	2.203
318.15 K, x2 = 0	842.6	2.016
318.15 K, x2 = 0.1	832.77	1.996
318.15 K, x2 = 0.2	823.26	1.978
318.15 K, x2 = 0.3	813.99	1.966
318.15 K, x2 = 0.4	804.97	1.959
318.15 K, x2 = 0.5	796.19	1.957
318.15 K, x2 = 0.6	787.68	1.959
318.15 K, x2 = 0.7	779.43	1.967
318.15 K, x2 = 0.7999	771.42	1.981
318.15 K, x2 = 0.9	763.64	2.003
323.15 K, x2 = 0	838.7	1.846
323.15 K, x2 = 0.1	828.91	1.832
323.15 K, x2 = 0.2	819.45	1.813
323.15 K, x2 = 0.3	810.22	1.801
323.15 K, x2 = 0.4	801.25	1.795
323.15 K, x2 = 0.5	792.52	1.793
323.15 K, x2 = 0.6	784.05	1.795
323.15 K, x2 = 0.7	775.84	1.8
323.15 K, x2 = 0.7999	767.88	1.813
323.15 K, x2 = 0.9	760.14	1.833

CCCCCCCC(=O)OCC [ethyl octanoate] + CCCCCCCCCCCCCCCC
Details	mass density [kg/m3]	viscosity [mPa·s]
298.15 K, x2 = 0	862.64	1.428
298.15 K, x2 = 0.1	848.72	1.539
298.15 K, x2 = 0.2	836.2	1.651
298.15 K, x2 = 0.3	824.94	1.776
298.15 K, x2 = 0.4	814.77	1.916
298.15 K, x2 = 0.4999	805.52	2.065
298.15 K, x2 = 0.6	797.09	2.229
298.15 K, x2 = 0.7	789.38	2.408
298.15 K, x2 = 0.8	782.33	2.608
298.15 K, x2 = 0.9	775.88	2.84
303.15 K, x2 = 0	858.34	1.313
303.15 K, x2 = 0.1	844.55	1.407
303.15 K, x2 = 0.2	832.14	1.513
303.15 K, x2 = 0.3	820.97	1.623
303.15 K, x2 = 0.4	810.9	1.744
303.15 K, x2 = 0.4999	801.74	1.875
303.15 K, x2 = 0.6	793.39	2.019
303.15 K, x2 = 0.7	785.75	2.175
303.15 K, x2 = 0.8	778.76	2.348
303.15 K, x2 = 0.9	772.36	2.543
308.15 K, x2 = 0	854.04	1.211
308.15 K, x2 = 0.1	840.37	1.296
308.15 K, x2 = 0.2	828.07	1.387
308.15 K, x2 = 0.3	817.01	1.49
308.15 K, x2 = 0.4	807.03	1.596
308.15 K, x2 = 0.4999	797.95	1.712
308.15 K, x2 = 0.6	789.68	1.837
308.15 K, x2 = 0.7	782.11	1.974
308.15 K, x2 = 0.8	775.18	2.124
308.15 K, x2 = 0.9	768.84	2.291
313.15 K, x2 = 0	849.72	1.121
313.15 K, x2 = 0.1	836.18	1.197
313.15 K, x2 = 0.2	824	1.279
313.15 K, x2 = 0.3	813.04	1.371
313.15 K, x2 = 0.4	803.16	1.467
313.15 K, x2 = 0.4999	794.16	1.57
313.15 K, x2 = 0.6	785.97	1.68
313.15 K, x2 = 0.7	778.47	1.801
313.15 K, x2 = 0.8	771.61	1.933
313.15 K, x2 = 0.9	765.33	2.083
318.15 K, x2 = 0	845.39	1.042
318.15 K, x2 = 0.1	831.98	1.11
318.15 K, x2 = 0.2	819.92	1.185
318.15 K, x2 = 0.3	809.06	1.267
318.15 K, x2 = 0.4	799.27	1.351
318.15 K, x2 = 0.4999	790.37	1.444
318.15 K, x2 = 0.6	782.25	1.543
318.15 K, x2 = 0.7	774.83	1.65
318.15 K, x2 = 0.8	768.04	1.766
318.15 K, x2 = 0.9	761.81	1.897
323.15 K, x2 = 0	841.06	0.971
323.15 K, x2 = 0.1	827.77	1.034
323.15 K, x2 = 0.2	815.83	1.101
323.15 K, x2 = 0.3	805.08	1.172
323.15 K, x2 = 0.4	795.39	1.251
323.15 K, x2 = 0.4999	786.56	1.334
323.15 K, x2 = 0.6	778.53	1.422
323.15 K, x2 = 0.7	771.18	1.517
323.15 K, x2 = 0.8	764.46	1.62
323.15 K, x2 = 0.9	758.3	1.736
